Data reported in a compilation of properties of binary mixtures (doi:10.1016/j.jct.2009.06.023).

Assay: xn = mol fraction of the nth substance listed
Settings: 101 kPa

CCCC[n+]1ccn(C)c1.O=[N+]([O-])[O-] + CCO
viscosity [mPa·s]
Settings	x2 = 0.11	x2 = 0.254	x2 = 0.352	x2 = 0.447	x2 = 0.556	x2 = 0.663	x2 = 0.748	x2 = 0.852
283.15 K	260	120.4	66	–	21.24	10.88	7.45	3.9
288.15 K	190	90.7	–	28.43	17.96	–	–	3.47
293.15 K	139.3	–	41.09	23.18	15.21	8.84	–	3.08
298.15 K	–	53.62	32.83	19.16	13.06	–	–	2.75
303.15 K	86.8	43.08	26.28	–	11.34	6.71	4.28	–
308.15 K	–	35.32	–	13.73	9.83	–	3.76	2.31
313.15 K	–	–	17.78	11.88	9.05	5	3.38	2.13
318.15 K	38.81	–	15.48	10.26	8.02	4.49	3.08	–
323.15 K	32.11	20.84	14.06	8.91	6.96	4.04	2.81	1.75
328.15 K	26.9	17.9	12.51	–	6.08	3.7	2.57	1.65
333.15 K	22.91	–	10.88	7.7	5.49	3.39	2.38	1.59

CCCC[n+]1ccn(C)c1.O=[N+]([O-])[O-] + CCCCO
viscosity [mPa·s]
Settings	x2 = 0.129	x2 = 0.26	x2 = 0.361	x2 = 0.456	x2 = 0.565	x2 = 0.65	x2 = 0.753	x2 = 0.848
283.15 K	232	125	75.5	–	29	19.86	11.42	7.82
288.15 K	170.6	–	58.8	38.34	–	16.11	9.74	6.78
293.15 K	126.9	68.4	46.54	31.1	–	13.67	8.41	–
298.15 K	–	53.94	37.64	–	–	11.74	7.28	5.12
303.15 K	70.8	–	30.76	21.48	–	10.17	6.35	4.52
308.15 K	–	–	25.6	18.23	12.37	–	–	3.98
313.15 K	45.28	29.24	–	15.59	–	–	–	3.56
318.15 K	37.11	–	18.41	13.52	–	6.94	4.38	3.19
323.15 K	30.72	20.83	–	11.81	8.33	6.15	–	2.87
328.15 K	25.86	17.89	13.75	10.37	7.37	5.52	3.5	2.6
333.15 K	21.95	15.46	–	9.18	–	4.93	3.17	2.37

CCCC[n+]1ccn(C)c1.O=[N+]([O-])[O-] + CCCO
viscosity [mPa·s]
Settings	x2 = 0.121	x2 = 0.257	x2 = 0.364	x2 = 0.471	x2 = 0.554	x2 = 0.673	x2 = 0.755	x2 = 0.857
283.15 K	243	125.8	72.5	42.71	27.88	15.61	10.26	6.16
288.15 K	–	95.7	56.76	–	23	13.2	8.83	5.29
293.15 K	130.9	68.2	45.1	28.35	19.19	–	7.6	4.64
298.15 K	99.8	53.67	36.43	23.48	16.29	–	6.56	4.05
303.15 K	74	43.04	29.92	19.71	13.94	8.54	5.77	3.59
308.15 K	58.48	35.02	24.93	–	12.03	7.43	5.04	3.21
313.15 K	47.07	28.93	–	14.44	10.5	6.49	4.49	2.87
318.15 K	38.59	24.21	17.89	–	–	5.78	3.97	2.59
323.15 K	–	20.58	15.41	–	8.16	5.09	3.58	2.35
328.15 K	26.75	17.65	13.41	–	7.2	4.58	–	–
333.15 K	22.73	15.31	11.77	8.61	–	4.14	2.94	1.96
